Key:
[1] = target: T1, full-length human PDE4D5 (Homo sapiens, UniProt Q08499); experiment: PDE4 radio-assay, PDE4D5 long form activation (Experiment 1); type: biochemical; conditions: n ≥ 2, read-out: PDE4D5 activity (mean % increase in counts over basal activity without added compound); for activation at 1 µM: 1 μM compound; for activation at 3 µM: 3 μM compound; for activation at 10 µM: 10 μM compound; for activation at 30 µM: 30 μM compound; for activation at 50 µM: 50 μM compound
T1 construct: stably expressed the full-length human PDE4D5, PDE4A4 and PDE4B1 long isoforms; made in house; cytosol fraction of the lysate
T1 sequence (Q08499 1-745 isoform Q08499-6): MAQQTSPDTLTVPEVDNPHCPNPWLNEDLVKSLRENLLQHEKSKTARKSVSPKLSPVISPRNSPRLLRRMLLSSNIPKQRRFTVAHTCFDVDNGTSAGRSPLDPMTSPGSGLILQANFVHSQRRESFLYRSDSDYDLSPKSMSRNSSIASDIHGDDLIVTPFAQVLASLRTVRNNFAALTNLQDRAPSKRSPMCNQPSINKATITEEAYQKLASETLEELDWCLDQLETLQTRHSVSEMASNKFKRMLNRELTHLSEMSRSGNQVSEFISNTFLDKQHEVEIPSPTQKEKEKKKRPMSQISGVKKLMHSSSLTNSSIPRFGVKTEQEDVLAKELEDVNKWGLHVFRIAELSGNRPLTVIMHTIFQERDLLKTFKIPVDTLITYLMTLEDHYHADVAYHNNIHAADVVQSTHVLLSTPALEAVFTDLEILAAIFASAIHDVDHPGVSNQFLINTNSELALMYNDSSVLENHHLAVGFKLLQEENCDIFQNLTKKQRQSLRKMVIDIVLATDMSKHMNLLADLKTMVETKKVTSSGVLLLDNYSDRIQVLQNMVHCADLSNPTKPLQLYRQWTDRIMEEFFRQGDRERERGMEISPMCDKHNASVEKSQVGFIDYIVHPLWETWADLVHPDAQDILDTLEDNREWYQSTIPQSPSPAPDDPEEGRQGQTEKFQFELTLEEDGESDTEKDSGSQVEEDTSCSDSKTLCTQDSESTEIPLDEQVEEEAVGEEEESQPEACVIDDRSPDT
Method: (§1) One suitable method of detecting whether or not a compound is capable of serving as an activator of a PDE4 long form is using a two-step radio-assay procedure described in Experiment 1. In summary, the method involves incubating a PDE4 long form with a test small molecule activator, together with [^3H]-labelled cAMP to assess alterations in the breakdown of cAMP to the 5′-adenosine monophosphate (5′-AMP) product. A sample of the reaction mixture from such an incubation is subsequently treated with snake venom 5′-nucleotidase to allow conversion of the nucleotide [^3H]-labelled 5′-AMP to the uncharged nucleoside [^3H]-labelled adenosine, which can be separated and quantified to assess PDE4 activity and the effect of the test compound (Thompson, W. J. and Appleman, M. M. Biochemistry 10: 311-316, 1971, with some modifications as described in: Marchmont, R. J. and Houslay, M. D. Biochem J. 187: 381-92, 1980).
(§2) HEK 293 cells were transfected with pDEST™ PDE4 expression vectors using Lipofectamine LTX/Plus reagent (Invitrogen) as outlined by the manufacturer and clonal isolates expanded to obtain cell lines that stably expressed the full-length human PDE4D5, PDE4A4 and PDE4B1 long isoforms and the full length human PDE4B2 short isoform. These were called the HEK-PDE4D5, HEK-PDE4A4, HEK-PDE4B1 and HEK-PDE4B2 cell lines, respectively.
(§3) HEK-PDE4D5 cells were seeded out in 100 mm plates and incubated at 37° C. in an atmosphere of 5% CO2, 95% air. Cell lysates were prepared using KHEM buffer [50 mM KCl, 10 mM EGTA, 50 mM HEPES (pH 7.2), 1.92 mM MgCl2].
(§4) To prepare the cell lysates, the 100 mm plates containing the cells were placed on ice and washed with ice-cold PBS (phosphate buffered saline, pH 7.4). KHEM buffer (500 μl) was added to the cells. Cells were then scraped off the plate and triturated using a needle (BD Microlance™ 0.8, 40 mm). The lysed cells were then centrifuged at 2000 rpm for 10 minutes to remove cell debris and the supernatant (cell lysate containing recombinant PDE4D5) was transferred to a fresh tube and kept on ice.
(§5) The cell lysate containing recombinant PDE4D5 was transferred into a centrifuge tube and placed into an ultracentrifuge (BECKMAN COULTER) and spun at high speed (100,000 g) for 30 minutes at 4° C. The cytosol fraction was then collected and its protein amount determined using a BCA protein assay.
PDE assays were performed using a final concentration of 10 mM Tris/5 mM MgCl2 and 1 μM [3H]-cAMP (Perkin Elmer) plus PDE4D5 cell lysate cytosol fraction, containing over-expressed PDE4D5, with and without test compound. Incubations were performed at 30° C. for 5 minutes. The samples were then placed in a boiling water bath for 2 minutes to denature the PDE enzyme, and returned to ice. Samples were allowed to cool for 1.0 min after which snake venom 5′-nucleotidase (25 μl, 1 mg/ml; Sigma) was added. The tubes were vortexed and incubated in a water bath at 30° C. for 10 minutes, to attain conversion of [3H]-5′-AMP to [3H]-adenosine, and then placed on ice. Dowex ion exchange resin (Sigma) prepared as a 1:1 Dowex:water stock was thoroughly re-suspended and diluted 2:1 with ethanol. The resulting Dowex suspension (0.4 ml) was added to each tube. Tubes were vortexed to mix and then incubated on ice for at least 15 minutes before a final vortex. The Dowex resin was pelleted by centrifugation at 13,000 g at 4° C. for 3 minutes and 150 μl of the supernatant was removed to an Eppendorf tube containing 1 ml of ScintiSafe3 scintillation fluid (Fisher). Tubes were vortexed thoroughly to mix and the recovered [3H]-adenosine was quantified by measuring counts over 1 minute in a scintillation counter.

[2] = target: T2, full length human PDE4B2 short isoform (Homo sapiens, UniProt Q07343); experiment: PDE4 radio-assay, PDE4B2 short form (Experiment 1); type: biochemical; conditions: method of Experiment 1; FIG. 4
T2 construct: the full length human PDE4B2 short isoform; made in house; cytosol fraction of the lysate
T2 sequence (Q07343 1-564 isoform Q07343-2): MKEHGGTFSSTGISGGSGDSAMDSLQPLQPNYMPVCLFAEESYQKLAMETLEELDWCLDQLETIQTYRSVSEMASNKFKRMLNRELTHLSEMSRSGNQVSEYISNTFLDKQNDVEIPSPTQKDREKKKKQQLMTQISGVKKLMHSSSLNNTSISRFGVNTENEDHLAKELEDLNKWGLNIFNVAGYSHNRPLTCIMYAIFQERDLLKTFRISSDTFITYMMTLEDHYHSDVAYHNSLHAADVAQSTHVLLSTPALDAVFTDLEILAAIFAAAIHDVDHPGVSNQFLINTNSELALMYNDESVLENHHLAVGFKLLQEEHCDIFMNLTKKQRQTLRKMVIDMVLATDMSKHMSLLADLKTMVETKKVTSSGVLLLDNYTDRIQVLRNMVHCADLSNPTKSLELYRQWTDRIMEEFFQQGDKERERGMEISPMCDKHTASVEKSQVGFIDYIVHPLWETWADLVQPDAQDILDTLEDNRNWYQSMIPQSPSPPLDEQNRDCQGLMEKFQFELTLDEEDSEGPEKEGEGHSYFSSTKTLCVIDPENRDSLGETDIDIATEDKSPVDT
Method: as §1, §2, §3, §4, §5
PDE assays were performed using a final concentration of 10 mM Tris/5 mM MgCl2 and 1 μM [3H]-cAMP (Perkin Elmer) plus PDE4D5 cell lysate cytosol fraction, containing over-expressed PDE4D5, with and without test compound. Incubations were performed at 30° C. for 5 minutes. […] Tubes were vortexed thoroughly to mix and the recovered [3H]-adenosine was quantified by measuring counts over 1 minute in a scintillation counter.

[3] = tested on: MDCK cells; experiment: Reduction of intracellular cAMP levels in forskolin stimulated MDCK cells (Experiment 2); type: cell-based, canine; conditions: 10 μM compound for 10 min prior to forskolin (10 μM) for 2 min; FIG. 6
Method: HEK 293 and MDCK cells (Public Health England, Cell Culture Collections) were maintained in DMEM supplemented with 10% (v/v) fetal bovine serum (Seralab), 2 mM L-glutamine, 1,000 U penicillin and 1,000 μg streptomycin (Life Technologies); termed complete media. Clonal HEK 293 cell lines were maintained in complete media supplemented with 0.6 mg/mL G418 (Enzo Life Sciences).
HEK 293 or MDCK cells were seeded at 100,000 cells per well, and left to adhere overnight. The cells were then treated with the compound indicated (10 μM) for 10 minutes, prior to stimulation with forskolin (10 μM, Sigma) for 2 minutes. Media was aspirated, and hydrochloric acid (0.1M) was added to lyse the cells. The cAMP assay (Enzo Life Sciences) was performed according to the manufacturers instructions.

Structure (SMILES) | activation at 1 µM [1] [%] | activation at 3 µM [1] [%] | activation at 10 µM [1] [%] | activation at 30 µM [1] [%] | activation at 50 µM [1] [%] | activation of PDE4B2, a short form of PDE4 (in words) [2] | intracellular cAMP levels in MDCK cells (in words) [3]
COCc1nc(-c2ccc(Cl)cc2)nn1CC(=O)NCc1ccccc1 [Example B, N-Benzyl-2-[3-(4-chlorophenyl)-5-methoxymethyl-1H-1,2,4-triazol-1-yl]acetamide] | 7.2 | 0.4 | 21.9 | 64.6 | 114 | lack of activation | –
Cc1nc(-c2ccc(Cl)cc2)nn1CC(=O)NCc1ccccc1 [Example C, N-Benzyl-2-[3-(4-chlorophenyl)-5-methyl-1H-1,2,4-triazol-1-yl]acetamide] | – | – | – | – | 119 | – | reduction in intracellular cAMP levels
COCc1nc(-c2ccc(OC(F)(F)F)cc2)nn1CC(=O)NCc1cccc(F)c1 [Example D, N-(3-Fluorobenzyl)-2-{3-[4-(trifluoromethoxy)phenyl]-5-methoxymethyl-1H-1,2,4-triazol-1-yl}acetamide] | 52.6 | 30.6 | 51.6 | 126 | 196 | lack of activation | reduction in intracellular cAMP levels
CCc1nc(-c2ccc(Cl)c(F)c2)nn1CC(=O)NCc1cccc(C#N)c1 [Example F, N-(3-Cyanobenzyl)-2-[3-(4-chloro-3-fluorophenyl)-5-ethyl-1H-1,2,4-triazol-1-yl]acetamide] | – | – | – | – | 107 | – | –
CCc1nc(-c2ccc(Cl)c(F)c2)nn1CC(=O)NCc1cccc(C(F)(F)F)c1 [Example G, N-[3-(Trifluoromethyl)benzyl]-2-[3-(4-chloro-3-fluorophenyl)-5-ethyl-1H-1,2,4-triazol-1-yl]acetamide] | – | – | – | – | 171 | – | –
CCc1nc(-c2ccc(Cl)c(F)c2)nn1CC(=O)NCc1cccc(OC(F)(F)F)c1 [Example I, N-[3-(Trifluoromethoxy)benzyl]-2-[3-(4-chloro-3-fluorophenyl)-5-ethyl-1H-1,2,4-triazol-1-yl]acetamide] | – | – | – | – | 92.1 | – | –
CCc1nc(-c2ccc(Cl)c(F)c2)nn1CC(=O)NCc1ccccc1F [Example J, N-(2-Fluorobenzyl)-2-[3-(4-chloro-3-fluorophenyl)-5-ethyl-1H-1,2,4-triazol-1-yl]acetamide] | – | – | – | – | 82.2 | – | –

Continued, in another order:

activation at 1 µM [1] [%] | activation at 3 µM [1] [%] | activation at 10 µM [1] [%] | activation at 30 µM [1] [%] | activation at 50 µM [1] [%] | activation of PDE4B2, a short form of PDE4 (in words) [2] | Structure (SMILES) | intracellular cAMP levels in MDCK cells (in words) [3]
– | – | – | – | 71.1 | – | CCc1nc(-c2ccc(Cl)c(F)c2)nn1CC(=O)NCc1cccc(Cl)c1 [Example E, N-(3-Chlorobenzyl)-2-[3-(4-chloro-3-fluorophenyl)-5-ethyl-1H-1,2,4-triazol-1-yl]acetamide] | –
– | – | – | – | 136 | – | CCc1nc(-c2ccc(Cl)c(F)c2)nn1CC(=O)NCc1cccc(OC)c1 [Example H, N-(3-Methoxybenzyl)-2-[3-(4-chloro-3-fluorophenyl)-5-ethyl-1H-1,2,4-triazol-1-yl]acetamide] | –
– | – | – | – | 80.5 | – | CCc1nc(-c2ccc(Cl)c(F)c2)nn1CC(=O)NCc1ccc(F)cc1 [Example K, N-(4-Fluorobenzyl)-2-[3-(4-chloro-3-fluorophenyl)-5-ethyl-1H-1,2,4-triazol-1-yl]acetamide] | –
26 | 42.4 | 79.8 | 214 | 251 | lack of activation | CCc1nc(-c2ccc(Cl)c(F)c2)nn1CC(=O)NCc1ccc(OC)c(OC)c1 [Example L, N-(3,4-Dimethoxybenzyl)-2-[3-(4-chloro-3-fluorophenyl)-5-ethyl-1H-1,2,4-triazol-1-yl]acetamide] | –

From US10793531B2, “Triazole derivatives and their use as PDE4 activators” (MIRONID LIMITED, priority 2015, dated 2020)
